Laboratory results from article PMC4653046 (Bioorganic & medicinal chemistry letters, 2015).
In brackets after ≈: the same amount, converted by molar mass.

Legend:
[1] = test system: BJ-derived cell lines (BJeLR, DRD, BJeHLT, BJeH); assay: potency and genotype-selective lethality in BJ-derived isogenic cell lines; type: cell-based, human; settings: for potency in HRAS^G12V-overexpressing cell lines: BJeLR, DRD cells
[2] = metabolic stability in mouse liver microsomes; type: in vitro ADME; settings: for half-life: mouse, liver microsomes, pH 7.4; for metabolic stability: mouse liver microsomes, 37 °C, pH 7.4, NADPH-generating system
water solubility = type: physicochemical
[3] = test system: HT-1080 human fibrosarcoma cell line; assay: growth inhibition of HT-1080 cells; type: cell-based; settings: for growth inhibition: HT-1080 cells, 48 h treatment
[4] = stability in mouse plasma; type: in vitro ADME; settings: 500 ng/mL, 37 °C, up until 120 min
[5] = test system: NRAS mutant human HT-1080 fibrosarcoma; settings: nude mice; cited from earlier work

metabolic stability [2] | Compound | potency in HRAS^G12V-overexpressing cell lines [1] | half-life [2] | other results
medium to poor metabolic stability | C=CCN1CCN(CC(=O)c2ccc(OC(C)C)c(-n3c(CN4CCN(C(=O)COc5ccc(Cl)cc5)CC4)nc4ccccc4c3=O)c2)CC1 [APKE, N-allylpiperazine ketone erastin] | – | – | –
medium to poor metabolic stability | CC(C)Oc1ccc(C(=O)CF)cc1-n1c(CN2CCN(C(=O)COc3ccc(Cl)cc3)CC2)nc2ccccc2c1=O [FKE, α-fluoro ketone erastin] | low nanomolar potencies | – | –
medium to poor metabolic stability | CC(C)Oc1ccc(C(=O)CN2CCN(C)CC2)cc1-n1c(CN2CCN(C(=O)COc3ccc(Cl)cc3)CC2)nc2ccccc2c1=O [MPKE, N-methylpiperazine ketone erastin] | – | – | –
medium to poor metabolic stability | COc1ccc(CN2CCN(CC(=O)c3ccc(OC(C)C)c(-n4c(CN5CCN(C(=O)COc6ccc(Cl)cc6)CC5)nc5ccccc5c4=O)c3)CC2)cc1 [PMB-PKE, N-p-methoxybenzylpiperazine ketone erastin] | – | – | –

Second part, the compound before the results:

Compound | metabolic stability [2] | potency in HRAS^G12V-overexpressing cell lines [1] | half-life [2] | other results
CC(C)Oc1ccc(C=O)cc1-n1c(CN2CCN(C(=O)COc3ccc(Cl)cc3)CC2)nc2ccccc2c1=O [AE, aldehyde erastin, reference compound] | – | low nanomolar potencies | < 5 min | –
CCOc1ccccc1-n1c(C(C)N2CCN(C(=O)COc3ccc(Cl)cc3)CC2)nc2ccccc2c1=O (centres unmarked) [Erastin, erastin] | – | – | – | solubility (water solubility): 86 µM (≈ 47 µg/mL)
CC(C)Oc1ccc(C(=O)Cn2ccnc2)cc1-n1c(CN2CCN(C(=O)COc3ccc(Cl)cc3)CC2)nc2ccccc2c1=O [IKE, imidazole ketone erastin] | – | low nanomolar potencies | – | selective lethality to BJeLR and DRD cells compared to BJeH and BJeHLT cells ([1]; 4 isogenic BJ-derived cell lines): selective lethality; growth inhibition [3]: complete growth inhibition; GI50 ([3]; Homo sapiens, HT-1080, 48 h): 310 nM; stability in mouse plasma [4]: remained stable
CC(=O)c1ccc(OC(C)C)c(-n2c(CN3CCN(C(=O)COc4ccc(Cl)cc4)CC3)nc3ccccc3c2=O)c1 [KE] | – | low nanomolar potencies | < 5 min | –
CC(C)Oc1ccc(CN2CCNCC2)cc1-n1c(CN2CCN(C(=O)COc3ccc(Cl)cc3)CC2)nc2ccccc2c1=O [PE, piperazine erastin] | – | – | – | effect on the growth of already established tumors [5]: limited effect
CC(C)Oc1ccc(C(=O)CN2CCNCC2)cc1-n1c(CN2CCN(C(=O)COc3ccc(Cl)cc3)CC2)nc2ccccc2c1=O [PKE, piperazine ketone erastin] | – | low nanomolar potencies | > 90 min | growth inhibition [3]: complete growth inhibition; stability in mouse plasma [4]: remained stable
